Assay results published in patent publication US11331289B2, “Antimicrobial composition” (priority 2017, dated 2022).
≈ marks a conversion by molar mass, not a printed value. Read-outs that look alike come from different tables or passages of the source.

Tests used:
Malassezia pachydermatis = test: MIC, microdilution broth method; assay type: cell-based; details: for MIC: Malassezia pachydermatis, read-out: MIC
Experimental: Six clinical isolates from dog skin (n=5) and cats (n=1) which had been sent to EnvA (mycology laboratory of BioPôle Alfort) for mycological culture. The isolates, collected in March 2016, were identified as belonging to the species Malassezia pachydermatis. They were maintained by regular transplanting on medium of Sabouraud. Isolates are subcultured 2 to 3 days prior to testing sensitivity.
A stock solution of Oxyclozanide at 1600 μg/mL is prepared in DMSO. The stock solution is then diluted in DMSO to obtain a concentration range of 3.125 μg/ml to 800 μg/ml. A 1/50 dilution of this range and of the stock solution is then carried out in ultrapure water so as to obtain a concentration range of 0.0625 μg/ml to 32 μg/ml and containing 2% of DMSO. 50 μl of these solutions are deposited in wells of a microplate and then 50 μl of inoculum calibrated at 10^6 CFU/ml in Sabouraud/Tween 40 (2%) are added. A range of tested concentrations ranges from 0.0312 μg/mL to 16 μg/mL. The final concentration of DMSO in contact with the inoculum is 1%. The same dilution and seeding protocol was followed with a stock solution of amphotericin B at 1600 μg/ml. A “placebo” (or yeast growth control) column is systematically included in the plates. The plates are incubated at 37 ° C. The reading is done at 24 and 48 h. Several trials were conducted and protocol adjustments were required. In particular, the concentration of the inoculum had to be reduced for antifungal activity to be observed.

S. aureus n°16 315 = test: Time-killing curve, broth macrodilution; assay type: cell-based, Staphylococcus aureus
Experimental: The time-killing curve is used to determine the bactericidal or bacteriostatic activity of the antibimicrobial substances. Time-killing curves of Oxyclozanide against canine isolates of Staphylococcus aureus and Staphylococcus pseudintermedius were obtained using broth macrodilution method. After contact of different fixed amounts of Oxyclozanide with an inoculum, viable bacteria are counted immediately after contact and after 1, 3, 6 and 24 hours. Counting is performed on agar medium without antimicrobial substance.
Results are analyzed by plotting log10 CFU/ml versus time for each tested concentration. Bactericidal activity as defined by 99.9% killing of the inoculum is determined from time-killing curves by noting the presence of a ≥3 log10 decrease in CFU/ml.
Bacterial strains were sub-cultured twice from one cryobead on Mueller Hinton agar and incubated at 37° C. for 18-24 hours. From the second subcultures, isolated colonies were transferred into tubes containing 2 ml of Mueller Hinton Broth in order to obtain bacterial suspensions at 10^8 CFU/ml, knowing that an optical density of 0.1 at 620 nm corresponds to bacterial suspension at 10^8 CFU/ml. Then, bacterial suspensions were adjusted between 5 10^7 and 1 10^8 CFU/ml by dilution in Mueller Hinton broth.
For each concentration of Oxyclozanide to be tested, 50 μl of working solution concentrated 100× and […] of inoculum were added to 5 ml of Mueller-Hinton broth. Thus, the range of tested concentrations was from 0.125 to 8 μg/ml and the concentration of micro-organism was between 1 10^6 and 2 10^6 CFU/ml.
At the same time, a tube without Oxyclozanide was prepared: 50 μl of DMSO and 100 μl of inoculum were added to 5 ml of Mueller-Hinton broth and used as growth control. Tubes were incubated at 36° C. under agitation.
The numbers of viable bacteria were determined immediately after contact (TO) and after 1, 3, 6 and 24 h of incubation.
At each time, samples of each tube were taken and dilutions were performed in Mueller-Hinton broth. Then, dilutions were spread on Mueller Hinton agar with spiral plater. After 18 h of incubation at 36° C., counting of colonies was performed with automatic colony counter which determine the concentrations of viable bacteria. The technique employed made it possible to quantify bacterial concentrations as low as 20 CFU/ml.
Time-killing curves were plotted for each concentration of Oxyclozanide using Microsoft Excel software. The number or surviving bacteria was expressed as log10 CFU/ml. The time-killing curves of each strain represent the decrease in the viable bacteria count as a function of time for the Oxyclozanide concentrations concerned.
Bactericidal activity as defined by 99.9% killing of the inoculum is determined from time-killing curves by noting the presence of a ≥3 log10 decrease in CFU/ml.

SMILES: O=C(Nc1cc(Cl)cc(Cl)c1O)c1c(O)c(Cl)cc(Cl)c1Cl [Oxyclozanide]
- MIC (Malassezia pachydermatis; Isolate 1, Assay 1, 10^6 CFU/ml): 8 µg/mL (≈ 19.9 µM)
- MIC (Malassezia pachydermatis; Isolate 1, Assay 2, 10^6 CFU/ml): 4 µg/mL (≈ 9.96 µM)
- MIC (Malassezia pachydermatis; Isolate 2, Assay 1, 10^6 CFU/ml): 8 µg/mL (≈ 19.9 µM)
- MIC (Malassezia pachydermatis; Isolate 2, Assay 2, 10^6 CFU/ml): 8 µg/mL (≈ 19.9 µM)
- MIC (Malassezia pachydermatis; Isolate 3, Assay 1, 10^6 CFU/ml): 8 µg/mL (≈ 19.9 µM)
- MIC (Malassezia pachydermatis; Isolate 3, Assay 2, 10^6 CFU/ml): 16 µg/mL (≈ 39.9 µM)
- MIC (Malassezia pachydermatis; Isolate 4, Assay 1, 10^6 CFU/ml): > 16 µg/mL
- MIC (Malassezia pachydermatis; Isolate 4, Assay 2, 10^6 CFU/ml): > 16 µg/mL
- MIC (Malassezia pachydermatis; Isolate 5, Assay 1, 10^6 CFU/ml): 8 µg/mL (≈ 19.9 µM)
- MIC (Malassezia pachydermatis; Isolate 5, Assay 2, 10^6 CFU/ml): 8 µg/mL (≈ 19.9 µM)
- MIC (Malassezia pachydermatis; Isolate 6, Assay 1, 10^6 CFU/ml): 8 µg/mL (≈ 19.9 µM)
- MIC (Malassezia pachydermatis; Isolate 6, Assay 2, 10^6 CFU/ml): 16 µg/mL (≈ 39.9 µM)
- Activity with respect to Malassezia pachydermatis (Malassezia pachydermatis; isolate 3): no activity
- Activity with respect to Malassezia pachydermatis (Malassezia pachydermatis; six clinical isolates): active
- Bacteria reducing rate (S. aureus n°16 315; 0.25 μg/ml (½ MIC), 1 h): 0.3 Δ log10 CFU/ml
- Viable bacteria count (S. aureus n°16 315; 0.25 μg/ml (½ MIC), 1 h): 6.7 Log10 CFU/ml
- Bacteria reducing rate (S. aureus n°16 315; 0.25 μg/ml (½ MIC), 3 h): 0.3 Δ log10 CFU/ml
- Viable bacteria count (S. aureus n°16 315; 0.25 μg/ml (½ MIC), 3 h): 6.7 Log10 CFU/ml
- Bacteria reducing rate (S. aureus n°16 315; 0.25 μg/ml (½ MIC), 6 h): 0.7 Δ log10 CFU/ml
- Bacteria reducing rate (S. aureus n°16 315; 0.25 μg/ml (½ MIC), 24 h): 1.8 Δ log10 CFU/ml
- Bacteria reducing rate (S. aureus n°16 315; 0.5 μg/ml (MIC), 1 h): −0.1 Δ log10 CFU/ml
- Bacteria reducing rate (S. aureus n°16 315; 0.5 μg/ml (MIC), 3 h): 0.1 Δ log10 CFU/ml
- Viable bacteria count (S. aureus n°16 315; 0.5 μg/ml (MIC), 3 h): 6.6 Log10 CFU/ml
- Bacteria reducing rate (S. aureus n°16 315; 0.5 μg/ml (MIC), 6 h): −0.2 Δ log10 CFU/ml
- Bacteria reducing rate (S. aureus n°16 315; 0.5 μg/ml (MIC), 24 h): 0.5 Δ log10 CFU/ml
- Viable bacteria count (S. aureus n°16 315; 0.5 μg/ml (MIC), 24 h): 7.0 Log10 CFU/ml
- Bacteria reducing rate (S. aureus n°16 315; 1 μg/ml (2 MIC), 1 h): 0.0 Δ log10 CFU/ml
- Bacteria reducing rate (S. aureus n°16 315; 1 μg/ml (2 MIC), 3 h): 0.1 Δ log10 CFU/ml
- Viable bacteria count (S. aureus n°16 315; 1 μg/ml (2 MIC), 3 h): 6.6 Log10 CFU/ml
- Bacteria reducing rate (S. aureus n°16 315; 1 μg/ml (2 MIC), 6 h): −0.3 Δ log10 CFU/ml
- Bacteria reducing rate (S. aureus n°16 315; 1 μg/ml (2 MIC), 24 h): −1.2 Δ log10 CFU/ml
- Bacteria reducing rate (S. aureus n°16 315; 2 μg/ml (4 MIC), 1 h): 0.1 Δ log10 CFU/ml
- Viable bacteria count (S. aureus n°16 315; 2 μg/ml (4 MIC), 1 h): 6.5 Log10 CFU/ml
- Bacteria reducing rate (S. aureus n°16 315; 2 μg/ml (4 MIC), 3 h): 0.2 Δ log10 CFU/ml
- Viable bacteria count (S. aureus n°16 315; 2 μg/ml (4 MIC), 3 h): 6.6 Log10 CFU/ml
- Bacteria reducing rate (S. aureus n°16 315; 2 μg/ml (4 MIC), 6 h): −1.1 Δ log10 CFU/ml
- Bacteria reducing rate (S. aureus n°16 315; 2 μg/ml (4 MIC), 24 h): −2.3 Δ log10 CFU/ml
- Bacteria reducing rate (S. aureus n°16 315; 4 μg/ml (8 MIC), 1 h): 0.0 Δ log10 CFU/ml
- Bacteria reducing rate (S. aureus n°16 315; 4 μg/ml (8 MIC), 3 h): −0.7 Δ log10 CFU/ml
- Viable bacteria count (S. aureus n°16 315; 4 μg/ml (8 MIC), 3 h): 5.7 Log10 CFU/ml
- Bacteria reducing rate (S. aureus n°16 315; 4 μg/ml (8 MIC), 6 h): −1.8 Δ log10 CFU/ml
- Viable bacteria count (S. aureus n°16 315; 4 μg/ml (8 MIC), 6 h): 4.6 Log10 CFU/ml
- Bacteria reducing rate (S. aureus n°16 315; 4 μg/ml (8 MIC), 24 h): −5.1 Δ log10 CFU/ml
- Bacteria reducing rate (S. aureus n°16 315; 8 μg/ml (16 MIC), 1 h): 0.1 Δ log10 CFU/ml
- Bacteria reducing rate (S. aureus n°16 315; 8 μg/ml (16 MIC), 3 h): −1.5 Δ log10 CFU/ml
- Viable bacteria count (S. aureus n°16 315; 8 μg/ml (16 MIC), 3 h): 4.8 Log10 CFU/ml
- Bacteria reducing rate (S. aureus n°16 315; 8 μg/ml (16 MIC), 6 h): −2.3 Δ log10 CFU/ml
- Bacteria reducing rate (S. aureus n°16 315; 8 μg/ml (16 MIC), 24 h): −5.0 Δ log10 CFU/ml
